Results from patent publication US4039540A, “3-Substituted quinoxaline-2-carboxamide-1,4-dioxides” (Pfizer Inc., priority 1975, dated 1977).
Values after ≈ are worked out from the molar mass of the structure shown. Where two headings read alike, the source gives them in different places.

Key:
[1] = test system: pathogenic bacteria; assay: in vivo activity in infected mice, last four lines of the table; settings: bacterium and dose in drawing 28, not readable; for IN VIVO number of survivors among the treated animals (head drawing 28): subcutaneous
Description: (§1) In determining the in vivo activity of the quinoxaline-1,4-dioxides of this invention, the test compound is administered to mice which have been infected by […] injection of a lethal inoculum of pathogenic bacteria. The test compound is administered using a multiple dosing regimen and using either the oral (PO) or the subcutaneous (SC) route. The inoculum of bacteria varies from about 1 to about 10 times the amount needed to kill 100% of the mice under the conditions of the test. At the end of the test, the activity of the compound is assessed by counting the number of survivors among the treated animals.
(§2) In vitro and in vivo activity of representative compounds of this invention, determined as aforesaid, are reported in the following tabulation for compounds of the formula: [drawing 12]

[2] = test system: Strep. pyrogens; assay: in vitro antibacterial activity, two-fold serial dilution in Brain-Heart Infusion Broth (MIC); assay type: cell-based; settings: overnight, anaerobic
Description: (§3) The broth is inoculated with bacteria and with the test quinoxaline-1,4-dioxide and then it is incubated overnight under anerobic conditions. On the next day, the test is read visually. The minimum inhibitory concentration (MIC) of test compound is the lowest concentration which prevents turbidity, i.e., which prevents growth of the microorganism.
as §2

[3] = test system: E. coli; assay: as above; assay type: cell-based; settings: Escherichia coli, overnight, anaerobic
Description: as §3, §2

[4] = test system: E. coli; assay: in vivo activity in mice infected with a lethal inoculum of E. coli; settings: Escherichia coli, sc, subcutaneous, multiple dosing, read-out: IN VIVO E. coli, number of survivors among the treated animals
Description: as §1, §2

[5] = test system: Strep. pyogenes; assay: in vivo activity in mice infected with a lethal inoculum of Strep. pyogenes; settings: Streptococcus pyogenes, multiple dosing
Description: as §1, §2

[6] = oral, read-out: IN VIVO Strep. pyogenes, number of survivors among the treated animals, PO (data in parenthesis)
[7] = sc, subcutaneous, read-out: IN VIVO Strep. pyogenes, number of survivors among the treated animals

SMILES	IN VIVO number of survivors among the treated animals, PO (data in parenthesis; head drawing 28) [1]	IN VIVO number of survivors among the treated animals (head drawing 28) [1]	MIC [2]	MIC [3]	responders at 25 mg/kg [4]	responders at 50 mg/kg [5, 6]	responders at 50 mg/kg [5, 7]
CN(C)C(=O)c1c(CS(=O)(=O)CCCCN2CCCCC2)[n+]([O-])c2ccccc2[n+]1[O-] [N(CH3)2; drawing 30; H]	1/10	8/10	6.25 µg/mL (≈ 13.9 µM)	12.5 µg/mL (≈ 27.7 µM)			
NC(=O)c1c(CS(=O)(=O)CCCCN2CCCCC2)[n+]([O-])c2ccccc2[n+]1[O-] [NH2; drawing 31; H]	0/10	9/10	12.5 µg/mL (≈ 29.6 µM)	25 µg/mL (≈ 59.2 µM)			
CCNC(=O)c1c(CS(=O)(=O)CCCO)[n+]([O-])c2ccccc2[n+]1[O-] [NHCH2 CH3; SO2 CH2 CH2 CH2 OH; H]			< 0.39 µg/mL	6.25 µg/mL (≈ 16.9 µM)	10%	20%	80%
CCNC(=O)c1c(CS(=O)(=O)CCCN2CCOCC2)[n+]([O-])c2ccccc2[n+]1[O-] [NHCH2 CH3; drawing 17; H]			12.5 µg/mL (≈ 28.5 µM)	25 µg/mL (≈ 57 µM)	60%	80%	100%
CCNC(=O)c1c(CS(=O)(=O)CCCN2CCCCC2)[n+]([O-])c2ccccc2[n+]1[O-] [NHCH2 CH3; drawing 26; H]			3.12 µg/mL (≈ 7.16 µM)	12.5 µg/mL (≈ 28.6 µM)	60%	90%	100%
CCNC(=O)c1c(CS(=O)(=O)CCCCN2CCCCC2)[n+]([O-])c2ccccc2[n+]1[O-] [NHCH2 CH3; drawing 32; H]	7/10	4/10	6.25 µg/mL (≈ 13.9 µM)	12.5 µg/mL (≈ 27.7 µM)			
O=C(NCC(O)CO)c1c(CS(=O)(=O)CCO)[n+]([O-])c2ccccc2[n+]1[O-] (centres unmarked) [NHCH2 CHOHCH2 OH; SO2 CH2 CH2 OH; H]			6.25 µg/mL (≈ 15.6 µM)	200 µg/mL (≈ 498 µM)	0%	70%	40%
CC(O)CNC(=O)c1c(CS(=O)(=O)CCO)[n+]([O-])c2ccccc2[n+]1[O-] (centres unmarked) [NHCH2 CHOHCH3; SO2 CH2 CH2 OH; H]			12.5 µg/mL (≈ 32.4 µM)	100 µg/mL (≈ 259 µM)	20%	10%	0%
CCOC(=O)CSCc1c(C(=O)NC)[n+]([O-])c2ccccc2[n+]1[O-] [NHCH3; SCH2 CO2 Et; H]			12.5 µg/mL (≈ 35.6 µM)	12.5 µg/mL (≈ 35.6 µM)	30%	0%	0%
CCN(CC)CCCS(=O)(=O)Cc1c(C(=O)NC)[n+]([O-])c2ccccc2[n+]1[O-] [NHCH3; SO2 (CH2)3 N(CH2 CH3)2; H]			12.5 µg/mL (≈ 30.5 µM)	25 µg/mL (≈ 60.9 µM)	40%	0%	80%
CNC(=O)c1c(CS(=O)(=O)CCCN(C)C)[n+]([O-])c2ccccc2[n+]1[O-] [NHCH3; SO2 (CH2)3 N(CH3)2; H]			3.12 µg/mL (≈ 8.17 µM)	6.25 µg/mL (≈ 16.3 µM)	100%		100%
CNC(=O)c1c(CS(=O)(=O)CCOC(C)=O)[n+]([O-])c2ccccc2[n+]1[O-] [NHCH3; SO2 CH2 CH2 OAc; H]			< 0.391 µg/mL	3.12 µg/mL (≈ 8.15 µM)	80%	70%	90%
CNC(=O)c1c(CS(=O)(=O)CCO)[n+]([O-])c2ccccc2[n+]1[O-] [NHCH3; SO2 CH2 CH2 OH; H]			1.56 µg/mL (≈ 4.58 µM)	0.781 µg/mL (≈ 2.29 µM)	100%	40%	80%
CNC(=O)c1c(CS(=O)(=O)CCCN2CCOCC2)[n+]([O-])c2ccccc2[n+]1[O-] [NHCH3; drawing 18; H]			25 µg/mL (≈ 58.9 µM)	25 µg/mL (≈ 58.9 µM)	0%	70%	100%
CNC(=O)c1c(CS(=O)(=O)CCCN2CCCCC2)[n+]([O-])c2ccccc2[n+]1[O-] [NHCH3; drawing 23; H]			6.25 µg/mL (≈ 14.8 µM)	6.25 µg/mL (≈ 14.8 µM)	100%	70%	100%
CNC(=O)c1c(CS(=O)(=O)CCCCN2CCCCC2)[n+]([O-])c2ccccc2[n+]1[O-] [NHCH3; drawing 29; H]	7/10	10/10	6.25 µg/mL (≈ 14.3 µM)	12.5 µg/mL (≈ 28.6 µM)			
CCC(CO)NC(=O)c1c(CS(=O)(=O)CCO)[n+]([O-])c2ccccc2[n+]1[O-] (centres unmarked) [NHCHEtCH2 OH; SO2 CH2 CH2 OH; H]			3.12 µg/mL (≈ 7.82 µM)	200 µg/mL (≈ 501 µM)	10%	80%	0%
CCNC(=O)c1c(CS(=O)(=O)CCO)[n+]([O-])c2ccccc2[n+]1[O-] [NHEt; SO2 CH2 CH2 OH; H]			1.56 µg/mL (≈ 4.4 µM)	6.25 µg/mL (≈ 17.6 µM)	90%	80%	60%
CNC(=O)c1c(CSCCCO)[n+]([O-])c2ccccc2[n+]1[O-] [NHMe; SCH2 CH2 CH2 OH; H]			1.56 µg/mL (≈ 4.83 µM)	12.5 µg/mL (≈ 38.7 µM)	20%	10%	0%
CNC(=O)c1c(CSCCO)[n+]([O-])c2ccccc2[n+]1[O-] [NHMe; SCH2 CH2 OH; H]			0.781 µg/mL (≈ 2.52 µM)	0.781 µg/mL (≈ 2.52 µM)	100%	60%	100%
CNC(=O)c1c(CS(=O)(=O)CCCO)[n+]([O-])c2ccccc2[n+]1[O-] [NHMe; SO2 CH2 CH2 CH2 OH; H]			3.12 µg/mL (≈ 8.79 µM)	12.5 µg/mL (≈ 35.2 µM)	70%	30%	90%
CCCNC(=O)c1c(CSCCO)[n+]([O-])c2ccccc2[n+]1[O-] [NHPr; SCH2 CH2 OH; H]			6.25 µg/mL (≈ 18.5 µM)	25 µg/mL (≈ 74.1 µM)	20%	30%	50%
CCCNC(=O)c1c(CS(=O)(=O)CCO)[n+]([O-])c2ccccc2[n+]1[O-] [NHPr; SO2 CH2 CH2 OH; H]			3.12 µg/mL (≈ 8.46 µM)	3.12 µg/mL (≈ 8.46 µM)	20%	70%	40%
